{"source": "paper PMC4178172", "about": "“Molecular Determinants of Agonist Selectivity in Glutamate-Gated Chloride Channels Which Likely Explain the Agonist Selectivity of the Vertebrate Glycine and GABAA-ρ Receptors” (PLoS ONE, 2014)", "key": {"GluClAc2": {"target": "T1, GluClAc2 (Aplysia californica, UniProt C7DLK0, Y161A)", "T1 construct": "homomeric receptor expressed in CHO-K1 cells", "T1 sequence (C7DLK0 32-429 Y161A)": "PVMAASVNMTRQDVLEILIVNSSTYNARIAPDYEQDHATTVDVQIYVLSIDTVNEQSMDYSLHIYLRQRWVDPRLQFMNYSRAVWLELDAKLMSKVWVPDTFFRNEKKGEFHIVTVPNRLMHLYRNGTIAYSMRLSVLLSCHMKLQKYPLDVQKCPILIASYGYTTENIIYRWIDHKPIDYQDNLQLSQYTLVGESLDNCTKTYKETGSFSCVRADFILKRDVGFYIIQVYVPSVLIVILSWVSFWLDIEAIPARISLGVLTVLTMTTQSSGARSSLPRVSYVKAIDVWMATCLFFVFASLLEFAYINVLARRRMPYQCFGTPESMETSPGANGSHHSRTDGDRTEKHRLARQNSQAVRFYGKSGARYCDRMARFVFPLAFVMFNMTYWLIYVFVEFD", "experiment": "whole-cell patch clamp, […] glutamate", "format": "cell-based"}, "GluClα2b": {"target": "T2, GluClα2b (Caenorhabditis elegans, UniProt O17548, R111L)", "T2 construct": "gene avr-15; homomeric receptor expressed in CHO-K1 cells", "T2 sequence (O17548 21-478 R111L)": "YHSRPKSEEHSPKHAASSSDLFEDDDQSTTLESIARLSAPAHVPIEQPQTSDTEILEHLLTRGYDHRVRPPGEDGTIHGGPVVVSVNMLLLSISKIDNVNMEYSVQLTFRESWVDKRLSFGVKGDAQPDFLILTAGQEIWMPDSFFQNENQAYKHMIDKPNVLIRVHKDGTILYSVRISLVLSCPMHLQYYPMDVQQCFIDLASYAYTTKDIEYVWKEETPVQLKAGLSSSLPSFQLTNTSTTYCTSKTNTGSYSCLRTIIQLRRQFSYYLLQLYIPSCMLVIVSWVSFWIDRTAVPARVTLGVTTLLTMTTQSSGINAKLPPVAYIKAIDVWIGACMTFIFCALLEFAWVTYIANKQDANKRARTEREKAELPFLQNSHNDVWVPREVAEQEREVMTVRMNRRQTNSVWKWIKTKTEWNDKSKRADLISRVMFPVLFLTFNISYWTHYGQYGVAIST", "experiment": "whole-cell patch clamp, […] glutamate", "format": "cell-based"}}, "data": [{"smiles": "N[C@@H](CCC(=O)O)C(=O)O", "note": "[glutamate]", "values": [{"measurement": "whole-cell patch clamp, 1 mM glutamate", "setting": "GluClAc2", "value": "its mutation to an alanine failed to cause any noticeable change in the response to glutamate"}, {"measurement": "whole-cell patch clamp, 1-100 mM glutamate", "setting": "GluClα2b", "value": "this mutation did not impede a robust response to glutamate at higher concentrations"}]}]}
